For data set [1] the following is noted: administered in large quantities; cited from earlier work.
Data set [2] can be described thus: In vitro resorption of bovine vertebral cortical bone sections (weight change after incubation). The procedure:
Fresh bovine vertebral bone was cut into 1-3 g sections with a diamond saw blade. Non-cortical medullary bone was trimmed from the cortical bone and the sections were dried while incubated for 12 hours at 37° C. and then weighed. […] Bone sections were then dried and reweighed.

Where [3] appears, read: citric acid 0.001M, pH 3.25, 37° C., 96 hours.
The mark [4] stands for this setting: citric acid 0.01M, pH 2.62, 37° C., 96 hours.
The mark [5] stands for this setting: citric acid 0.1M, pH 2.08, 37° C., 96 hours.
Where [6] appears, read: citric acid 1M, pH 1.57, 37° C., 96 hours.
Setting [7] is: sodium citrate 0.001M, pH 7.65, 37° C., 96 hours.
Setting [8] is: sodium citrate 0.01M, pH 7.78, 37° C., 96 hours.
Setting [9] is: sodium citrate 0.1M, pH 9.27, 37° C., 96 hours.
The mark [10] stands for this setting: sodium citrate 1M, pH 8.67, 37° C., 96 hours.

Values joined by “and” are separate entries in the source; they are usually repeats but may differ in a detail not shown here. Equal values may be shown once.

For `O=C(O)CC(O)(CC(=O)O)C(=O)O` [Citrate], the toxicity result in data set [1] was “non-toxic”.
As to `O=C(O)CC(O)(CC(=O)O)C(=O)O` [Citric acid, citric acid], the “% change” value is listed as “+0.00349%” in data set [2] (setting [3]), −0.04435% in data set [2] (setting [4]), −0.1198% in data set [2] (setting [5]) and −0.288% in data set [2] (setting [6]). Moreover, the Wt. change entry in data set [2] (setting [3]) is “+0.00432 g”; in data set [2] (setting [4]), -0.06128 g; in data set [2] (setting [5]), -0.1916 g; in data set [2] (setting [6]), -0.4863 g. Further, the “dependence of bone resorption” value in data set [2] (citric acid, 37° C., 96 hours) was “pH dependent”.
Regarding `O=C([O-])CC(O)(CC(=O)[O-])C(=O)[O-].[Na+].[Na+].[Na+]` [Sodium citrate, sodium citrate], the “% change” value in data set [2] (setting [7]) is −0.00037%; in data set [2] (setting [8]), −0.01319%; in data set [2] (sodium citrate 0.1M, pH 9.27, 37° C.), −0.03159% and −0.00551%; in data set [2] (setting [9]), −0.01116%; in data set [2] (sodium citrate 0.125M, pH 9.20, 37° C.) it was −0.00109% and −0.03799%; in data set [2] (sodium citrate 0.15M, pH 9.16, 37° C.), −0.04659% and −0.05754%. Besides, the “% change” value was −0.00373% and −0.01174% in data set [2] (sodium citrate 0.25M, pH 9.12, 37° C.); −0.00196% and −0.01386% in data set [2] (sodium citrate 0.55M, pH 8.68, 37° C.); −0.01873% in data set [2] (setting [10]). For the same molecule, the Wt. change was -0.00077 g in data set [2] (setting [7]), -0.03261 g in data set [2] (setting [8]), -0.01593 g in data set [2] (setting [9]) and -0.04881 g in data set [2] (setting [10]). For the same molecule, in data set [2] (sodium citrate, 37° C., 168 hours), the “molarity of greatest resorption of bone” value came out at 0.15 M.

The values are drawn from patent US9616040B2 (priority 2016, dated 2017).
